Results: the supplement of paper PMC10307832

Legend:
Test in all cases: relative viability (nuclei count vs DMSO), 5 days (fraction); higher = more cells survive
Dabrafenib + Lapatinib = compound: CC(C)(C)c1nc(-c2cccc(NS(=O)(=O)c3c(F)cccc3F)c2F)c(-c2ccnc(N)n2)s1 [Dabrafenib] + CS(=O)(=O)CCNCc1ccc(-c2ccc3ncnc(Nc4ccc(OCc5cccc(F)c5)c(Cl)c4)c3c2)o1 [Lapatinib] (partner 2 µM)
In short: (§1)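 Lung cancer cell lines in 1536-well plates were dosed by pin tool the day after seeding, either with one drug alone or with a fixed anchor-drug dose plus five library-drug doses (not always all listed) in √10 steps. After 5 days, cells were fixed and their nuclei stained in one step (final 0.05% Triton X-100, 1% formaldehyde, 1 ug/ml Hoechst), then counted on 4× images. Relative viability is the nuclei count in treated wells divided by that in vehicle wells. Values are medians of duplicate plates.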

VX-702 + Olaparib = compound: NC(=O)c1ccc(N(C(N)=O)c2c(F)cccc2F)nc1-c1ccc(F)cc1F [VX-702] + O=C(c1cc(Cc2n[nH]c(=O)c3ccccc23)ccc1F)N1CCN(C(=O)C2CC2)CC1 [Olaparib] (partner 8 µM)
In short: as §1

VX-702 + Tozasertib = compound: NC(=O)c1ccc(N(C(N)=O)c2c(F)cccc2F)nc1-c1ccc(F)cc1F [VX-702] + Cc1cc(Nc2cc(N3CCN(C)CC3)nc(Sc3ccc(NC(=O)C4CC4)cc3)n2)n[nH]1 [Tozasertib] (partner 0.1 µM)
In short: as §1

VX-702 + Alpelisib = compound: NC(=O)c1ccc(N(C(N)=O)c2c(F)cccc2F)nc1-c1ccc(F)cc1F [VX-702] + Cc1nc(NC(=O)N2CCC[C@H]2C(N)=O)sc1-c1ccnc(C(C)(C)C(F)(F)F)c1 [Alpelisib] (partner 2 µM)
In short: as §1

Cell Line | relative viability (Dabrafenib + Lapatinib; first compound 0.003 µM) | relative viability (Dabrafenib + Lapatinib; first compound 0.009487 µM) | relative viability (Dabrafenib + Lapatinib; first compound 0.03 µM) | relative viability (Dabrafenib + Lapatinib; first compound 0.09487 µM) | relative viability (Dabrafenib + Lapatinib; first compound 0.3 µM) | relative viability (VX-702 + Olaparib; first compound 0.02 µM) | relative viability (VX-702 + Olaparib; first compound 0.2 µM) | relative viability (VX-702 + Olaparib; first compound 0.6325 µM) | relative viability (VX-702 + Olaparib; first compound 2 µM) | relative viability (VX-702 + Tozasertib; first compound 0.02 µM) | relative viability (VX-702 + Tozasertib; first compound 0.2 µM) | relative viability (VX-702 + Tozasertib; first compound 0.6325 µM) | relative viability (VX-702 + Tozasertib; first compound 2 µM) | relative viability (VX-702 + Alpelisib; first compound 0.02 µM) | relative viability (VX-702 + Alpelisib; first compound 0.2 µM) | relative viability (VX-702 + Alpelisib; first compound 0.6325 µM) | relative viability (VX-702 + Alpelisib; first compound 2 µM)
NCI-H1915 | 1.04 | 0.985 | 0.781 | 0.654 | 0.673 | 0.28 | 0.257 | 0.238 | 0.241 | 0.411 | 0.43 | 0.42 | 0.46 | 1.04 | 1.05 | 1.1 | 1.15
NCI-H1793 | 0.522 | 1 | 0.598 | 0.741 | 0.612 | 0.939 |  | 0.858 | 1.01 | 0.344 | 0.309 | 0.248 | 0.322 | 0.822 | 0.583 | 0.545 | 0.959
CAL-12T | 0.709 | 0.74 | 0.683 | 0.639 | 0.789 | 0.798 | 0.69 | 0.711 | 0.697 | 0.369 | 0.31 | 0.273 | 0.398 | 1.22 | 1.27 | 1.16 | 1.24
HCC-15 | 0.788 | 0.809 | 0.891 | 0.739 | 0.732 | 0.752 | 0.712 | 0.692 | 0.719 | 0.402 | 0.322 | 0.408 | 0.53 | 0.844 | 0.777 | 0.848 | 0.956
LC-2-ad | 0.862 | 1.01 | 0.976 | 0.886 | 0.925 | 0.724 | 0.678 | 0.799 | 0.776 | 0.375 | 0.4 | 0.465 | 0.497 | 0.943 | 0.885 | 0.868 | 1.02
NCI-H520 | 0.856 | 0.867 | 0.642 | 0.816 | 0.727 | 0.358 | 0.305 | 0.379 | 0.289 | 0.443 | 0.385 | 0.434 | 0.55 | 0.919 | 0.788 | 0.796 | 1.06
LOU-NH91 |  | 0.789 | 0.683 | 0.772 | 0.802 | 0.888 | 0.891 | 0.911 | 0.881 | 0.75 | 0.657 | 0.677 | 0.628 | 0.699 | 0.683 | 0.702 | 0.562
NCI-H1355 |  | 1.11 | 1.03 |  | 1.19 | 0.752 | 0.729 | 0.785 | 0.876 | 0.497 | 0.514 | 0.593 | 0.631 | 0.778 | 0.807 | 0.799 | 0.876
LCLC-97TM1 |  | 1.19 | 0.994 |  | 0.916 | 0.428 | 0.307 | 0.502 | 0.69 | 0.175 | 0.183 | 0.301 | 0.252 | 0.187 | 0.238 | 0.205 | 0.227
LK-2 | 0.885 | 1.02 |  | 0.902 | 0.985 | 0.68 | 0.601 | 0.555 | 0.751 | 0.153 | 0.173 | 0.157 | 0.168 | 0.611 |  | 0.635 | 1.18
RERF-LC-KJ | 0.851 | 0.9 | 0.893 | 0.907 | 1.04 | 1.01 | 0.854 | 0.921 | 0.901 | 0.538 | 0.477 | 0.541 | 0.463 | 0.969 | 0.69 | 0.8 | 0.794
NCI-H1395 |  | 1.02 | 0.821 | 0.85 | 0.973 | 0.447 | 0.46 | 0.502 | 0.448 | 0.686 | 0.767 | 0.75 | 0.966 | 1.2 | 1.11 | 0.967 | 1.38
LU99A | 0.974 | 0.971 | 0.994 | 0.852 | 0.751 | 0.265 | 0.233 | 0.255 | 0.228 | 0.315 | 0.25 | 0.257 | 0.263 | 0.52 | 0.485 | 0.48 | 0.467
SK-MES-1 | 0.418 | 0.546 | 0.525 | 0.506 | 0.598 | 0.679 | 0.681 | 0.622 | 0.696 | 0.92 | 0.944 | 0.914 | 0.995 | 0.739 | 0.822 | 0.853 | 0.918
NCI-H322M |  | 0.657 |  | 0.584 | 0.559 | 1.26 | 0.839 | 0.806 | 0.929 | 0.486 | 0.506 | 0.496 | 0.508 | 0.873 | 0.695 | 0.779 | 0.894
NCI-H358 |  | 0.53 | 0.369 | 0.446 | 0.465 | 0.628 | 0.526 | 0.561 | 0.634 | 0.0998 | 0.0877 | 0.0872 | 0.115 | 0.804 | 0.778 | 0.777 | 0.973
EMC-BAC-2 | 0.87 | 0.775 | 0.877 | 0.926 | 0.916 | 0.526 | 0.483 | 0.482 | 0.441 | 0.349 | 0.278 | 0.272 | 0.304 | 0.766 | 0.671 | 0.723 | 0.852
HCC-78 |  | 0.697 | 0.702 | 0.754 | 0.838 | 0.743 | 0.671 | 0.83 | 0.867 | 0.42 | 0.456 | 0.325 | 0.465 | 0.303 | 0.33 | 0.287 | 0.32
NCI-H2085 | 0.694 | 0.821 | 0.58 | 0.74 | 0.784 | 0.818 | 0.824 | 0.878 | 0.833 | 0.847 | 0.762 | 0.864 | 0.789 | 1.08 | 0.838 | 0.959 | 0.955
